The values that follow come from patent US12422369B2, “Immunosensor” (PPB Technology Pty Ltd, priority 2019, dated 2025).

Several values for one entry are separate records, joined by “and”; a condition that tells them apart may be missing. Equal values may be shown once.

The test system of test [1] is T9NB1-RLuc8. The test is described as follows: BRET^2 competitive assay for TCC with nanobody sensor T9NB1-RLuc8/TCC-4′-S—(CH2)2—CO-GFP^2. Type of test: binding, camelid. To be noted: 10 nM T9NB1-RLuc8 and 10 nM TCC-4′-S—(CH2)2—CO-GFP^2, 2% DMSO/PBS, 5 minutes at 22° C. On the procedure: Instrumentation: Simultaneous dual emission BRET measurements were carried out with a CLARIOstar microplate reader (BMG LabTech). BRET^2 measurements used the BRET^2 emission filter set comprising RLuc/CLZ400a emission filter (410 nm bandpass, 80 nm) and the GFP^2 emission filter (515 nm bandpass, 30 nm). BRET^2 ratios were calculated as ratios of integrated acceptor emission channel intensity to integrated donor emission channel intensity.
BRET^2 assay: All reactions were carried out in white 96-well plates (Perkin-Elmer, Australia). A final concentration of 10 nM of T9NB1-RLuc8 and 10 nM of TCC-4′-S—(CH2)2—CO-GFP^2 were used for all assays, in a final volume of 100 μL 2% DMSO in PBS.
To construct a calibration curve, 10 nM of T9NB1-RLuc8 and 10 nM of TCC-4′-S—(CH2)2—CO-GFP^2 were incubated for 5 minutes at 22° C. with a range of different final concentrations of TCC, namely 1, 3, 6.3, 12.5, 25, 50, 100 and 200 nM, added from a stock of TCC in DMSO or DMSO only (2% final concentration in PBS). At the end of the incubation time, 1 μL of coelenterazine 400a (1 mM stock) in EtOH was added to the reaction mixture (final [CLZ400a]=10 μM) and the luminescence intensities recorded immediately. The BRET^2 ratios were calculated and are presented as a function of the concentration of TCC in FIG. 8. […]
A general note: Bioluminescence resonance energy transfer reports proximity on the nanometre scale.

Test [2] has as its target Anti-FLAG mAb. The test is described as follows: Competitive BRET binding assay for FLAG peptide, antibody-12/36-RLuc8 conjugate, Fluorostar plate-reader. The note with it: mAb-12/36-RLuc8 50 nM, 200 nM FLAG-GFP^2, Fluorostar. On the procedure: In order to determine whether the immunosensors of the present invention can be used to detect and measure the concentration of an analyte, the antibody-12/36-RLuc8 conjugate was incubated with 200 nM FLAG-GFP^2 and varying concentrations of FLAG peptide (from 256 μM to less than 0.5 nM) for 5 minutes before coelenterazine 400a was added and the BRET ratio determined using the Fluorostar plate-reader as described in Example 9. The BRET ratios were plotted against Log [FLAG] values.

In test [3] the test system is Anti-FLAG mAb. The test is described as follows: Competitive BRET calibration for FLAG peptide, mAb-24/36-RLuc8 conjugate, Clariostar plate-reader. The note with it: 5 nM mAb-24/36-RLuc8, 10 nM FLAG-GFP^2, 5 minute incubation. It counts as binding. The method, then: A calibration was also performed using the Clariostar plate-reader (BMG) and the antibody-24/36-RLuc8 conjugate. Measurements were made in the bioluminescence mode and the dual linear variable filters were set to 410-80 (Gain: 3300) for RLuc8 emission and 515-30 (Gain: 4095) for GFP^2 emission. An integration time of 1.54 s was used. Coelenterazine 400a was prepared by adding 100 μL ethanol to a dried aliquot (0.5 mM), with 1 μL added to the final assay to give a final concentration of 5 μM. A final concentration of 5 nM of RLuc8-conjugate and 10 nM GFP^2-FLAG was used for assays. The final assay volume was 100 μL with PBS (with BSA (1 mg/ml) used to make up the volume.
To construct a standard curve using the Clariostar, 5 nM mAb-24/36-RLuc8 conjugate was added to 10 nM FLAG-GFP^2 in PBS with BSA (1 mg/mL) and the mixture incubated with unlabelled FLAG peptide (various concentrations) for 5 minutes at 28° C. Coelenterazine 400a was added and the BRET response determined. BRET ratio was calculated by dividing the GFP^2 intensity (average 0-13.86 s) by the RLuc8 intensity (average 0-13.86 s). The BRET ratios were normalised using the normalisation function in Graphpad Prism 7 for Windows, plotted against Log [FLAG] values and fitted with a Log [Agonist] vs normalized response—variable slope model.

Test [4] in a line: Luciferase activity with Coelenterazine 400a. Type of test: biochemical. The method, then:
Luciferase activity: Coelenterazine 400a (Cayman Chemicals) (6-phenyl-2,8-bis(phenylmethyl)-imidazo[1,2-a]pyrazin-3(7H)-one) (1 mg) was dissolved in 10.2 mL ethanol and partitioned into 200 μL aliquots which were dried (Speedivac) and stored at −20° C. until use.
Coelenterazine 400a (50 nmol) was dissolved in 50 μL ethanol and 450 μL water was added. RLuc8 monomer (2.4 mg/mL) and RLuc8 dimer (4.8 mg/mL) were diluted in 1 mg/mL BSA in buffer. In a well of a white 96-well Optiplate (Perkin Elmer) was added TBS, PBS or 100 mM sodium phosphate pH 7.0, 2 μL luciferase enzyme (1/10 or 1/100 dilution) and 5 μL of 0.1 mM Coelenterazine 400a solution. The final volume in each well was 100 μL. The light produced was measured in a FLUOstar Optima (BMG Labtech) using luminescence optics and no filter.

The term EC50 denotes the concentration giving half of the maximal effect. Low values mean a more potent agent, high ones a less potent agent.

Turning to `O=C(Nc1ccc(Cl)cc1)Nc1ccc(Cl)c(Cl)c1` [TCC, triclocarban], the EC50 in test [1] is 17.3 nM and 17 nM.

For DYKDDDDK [FLAG peptide], the EC50 was found to be 274 nM in test [2] and 1.41 nM in test [3].

B1: N-His-RLuc8: N-terminal hexahistidine tagged Renilla reniformis luciferase RLuc8-LPETGG, SEQ ID NO: 5 (protein)
chain: MGHHHHHHGTENLYFQGSASKVYDPEQRKRMITGPQWWARCKQMNVLDSFINYYDSEKHAENAVIFLHGNATSSYLWRHVVPHIEPVARCIIPDLIGMGKSGKSGNGSYRLLDHYKYLTAWFELLNLPKKIIFVGHDWGAALAFHYAYEHQDRIKAIVHMESVVDVIESWDEWPDIEEDIALIKSEEGEKMVLENNFFVETVLPSKIMRKLEPEEFAAYLEPFKEKGEVRRPTLSWPREIPLVKGGKPDVVQIVRNYNAYLRASDDLPKLFIESDPGFFSNAIVEGAKKFPNTEFVKVKGLHFLQEDAPDEMGKYIKSFVERVLKNEQLPETGGAALEAS
modifications: N-His-RLuc8
With B1, the “Luciferase activity, monomer versus dimer” value in test [4] (Coelenterazine 400a, FLUOstar Optima, no filter) is “more active than the dimeric form”. Moreover, the “Luciferase activity over time” value in test [4] (after Coelenterazine 400a addition, data not shown) is recorded as “decreased very rapidly (over a few seconds)”.
